Experiment [1] addresses High affinity nerve growth factor receptor (Homo sapiens) (UniProt P04629). Kind of experiment: Inhibition of TRKA (unknown origin).
The target in experiment [2] is Receptor-type tyrosine-protein kinase FLT3 (Homo sapiens) (UniProt P36888). Kind of experiment: Inhibition of FLT3 (unknown origin).
The target in experiment [3] is T1, Interleukin-1 receptor-associated kinase 4 (Homo sapiens, UniProt Q9NWZ3).
T1 sequence (Q9NWZ3 whole entry): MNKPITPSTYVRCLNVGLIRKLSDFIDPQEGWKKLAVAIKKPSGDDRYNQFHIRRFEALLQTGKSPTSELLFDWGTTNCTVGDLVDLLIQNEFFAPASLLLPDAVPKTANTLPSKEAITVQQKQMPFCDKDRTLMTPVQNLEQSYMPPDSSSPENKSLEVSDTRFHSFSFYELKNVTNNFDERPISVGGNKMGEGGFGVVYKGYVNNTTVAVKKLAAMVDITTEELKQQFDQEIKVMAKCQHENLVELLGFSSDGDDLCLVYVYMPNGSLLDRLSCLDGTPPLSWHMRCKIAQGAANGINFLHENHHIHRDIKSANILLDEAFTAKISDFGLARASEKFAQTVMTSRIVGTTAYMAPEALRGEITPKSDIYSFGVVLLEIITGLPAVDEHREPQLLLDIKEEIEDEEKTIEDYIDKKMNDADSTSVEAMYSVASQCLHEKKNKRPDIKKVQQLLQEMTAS
In words: Inhibition of N-terminal GST tagged human recombinant full-length IRAK4 expressed in Sf9 insect cells assessed as reduction in substrate phosphorylation using RP7030 peptide substrate and ATP incubated for 30 mins fluorescence polarization assay. A general note: In fluorescence polarisation assays a small probe gives low polarisation when free and higher when bound to something large.

The target of experiment [4] is Dual specificity protein kinase CLK4 (Homo sapiens) (UniProt Q9HAZ1). In words: Inhibition of CLK4 (unknown origin).
Sequence of Dual specificity protein kinase CLK4 (Homo sapiens) (Q9HAZ1 whole entry, looked up): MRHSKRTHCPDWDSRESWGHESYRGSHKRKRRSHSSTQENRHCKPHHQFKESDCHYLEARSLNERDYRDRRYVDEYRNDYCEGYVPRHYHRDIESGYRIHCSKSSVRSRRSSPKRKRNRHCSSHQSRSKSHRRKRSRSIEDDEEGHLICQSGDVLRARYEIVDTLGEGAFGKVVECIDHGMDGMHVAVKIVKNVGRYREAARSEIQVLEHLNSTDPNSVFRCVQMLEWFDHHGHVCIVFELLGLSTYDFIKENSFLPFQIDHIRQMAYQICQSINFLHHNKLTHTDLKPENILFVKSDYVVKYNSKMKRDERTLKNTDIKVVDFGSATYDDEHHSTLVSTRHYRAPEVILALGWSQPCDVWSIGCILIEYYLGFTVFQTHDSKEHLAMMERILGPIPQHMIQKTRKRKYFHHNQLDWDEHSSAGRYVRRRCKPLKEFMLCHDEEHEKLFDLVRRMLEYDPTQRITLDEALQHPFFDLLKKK
The target in experiment [5] is NT-3 growth factor receptor (Homo sapiens) (UniProt Q16288). Kind of experiment: Inhibition of TRKC (unknown origin).
Sequence of NT-3 growth factor receptor (Homo sapiens) (Q16288 32-839 limits assumed): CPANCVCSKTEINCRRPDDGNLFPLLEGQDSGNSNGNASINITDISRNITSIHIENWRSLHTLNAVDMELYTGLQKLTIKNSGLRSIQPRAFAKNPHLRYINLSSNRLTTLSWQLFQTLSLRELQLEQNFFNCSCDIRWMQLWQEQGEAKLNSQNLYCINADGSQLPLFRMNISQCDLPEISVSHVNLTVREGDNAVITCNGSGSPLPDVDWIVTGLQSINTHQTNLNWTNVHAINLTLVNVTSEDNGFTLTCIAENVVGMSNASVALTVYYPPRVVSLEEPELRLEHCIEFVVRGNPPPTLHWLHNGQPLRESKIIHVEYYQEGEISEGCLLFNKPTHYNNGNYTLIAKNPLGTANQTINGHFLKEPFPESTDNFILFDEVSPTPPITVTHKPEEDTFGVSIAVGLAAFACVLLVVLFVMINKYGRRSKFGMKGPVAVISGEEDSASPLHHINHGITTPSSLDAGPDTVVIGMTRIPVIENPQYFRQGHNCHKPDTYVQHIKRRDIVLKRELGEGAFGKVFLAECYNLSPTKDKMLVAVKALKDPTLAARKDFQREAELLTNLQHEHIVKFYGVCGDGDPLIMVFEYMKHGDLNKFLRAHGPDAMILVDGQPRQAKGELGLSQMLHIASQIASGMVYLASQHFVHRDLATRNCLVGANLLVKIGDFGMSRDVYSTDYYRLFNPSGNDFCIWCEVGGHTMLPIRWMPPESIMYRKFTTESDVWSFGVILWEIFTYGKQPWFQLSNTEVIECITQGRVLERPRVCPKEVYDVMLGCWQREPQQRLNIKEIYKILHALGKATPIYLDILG
For experiment [6], the target named is Mitogen-activated protein kinase kinase kinase kinase 4 (Homo sapiens) (UniProt O95819). Kind of experiment: Inhibition of MAP4K4 (unknown origin).
Sequence of Mitogen-activated protein kinase kinase kinase kinase 4 (Homo sapiens) (O95819 2-1239 limits assumed): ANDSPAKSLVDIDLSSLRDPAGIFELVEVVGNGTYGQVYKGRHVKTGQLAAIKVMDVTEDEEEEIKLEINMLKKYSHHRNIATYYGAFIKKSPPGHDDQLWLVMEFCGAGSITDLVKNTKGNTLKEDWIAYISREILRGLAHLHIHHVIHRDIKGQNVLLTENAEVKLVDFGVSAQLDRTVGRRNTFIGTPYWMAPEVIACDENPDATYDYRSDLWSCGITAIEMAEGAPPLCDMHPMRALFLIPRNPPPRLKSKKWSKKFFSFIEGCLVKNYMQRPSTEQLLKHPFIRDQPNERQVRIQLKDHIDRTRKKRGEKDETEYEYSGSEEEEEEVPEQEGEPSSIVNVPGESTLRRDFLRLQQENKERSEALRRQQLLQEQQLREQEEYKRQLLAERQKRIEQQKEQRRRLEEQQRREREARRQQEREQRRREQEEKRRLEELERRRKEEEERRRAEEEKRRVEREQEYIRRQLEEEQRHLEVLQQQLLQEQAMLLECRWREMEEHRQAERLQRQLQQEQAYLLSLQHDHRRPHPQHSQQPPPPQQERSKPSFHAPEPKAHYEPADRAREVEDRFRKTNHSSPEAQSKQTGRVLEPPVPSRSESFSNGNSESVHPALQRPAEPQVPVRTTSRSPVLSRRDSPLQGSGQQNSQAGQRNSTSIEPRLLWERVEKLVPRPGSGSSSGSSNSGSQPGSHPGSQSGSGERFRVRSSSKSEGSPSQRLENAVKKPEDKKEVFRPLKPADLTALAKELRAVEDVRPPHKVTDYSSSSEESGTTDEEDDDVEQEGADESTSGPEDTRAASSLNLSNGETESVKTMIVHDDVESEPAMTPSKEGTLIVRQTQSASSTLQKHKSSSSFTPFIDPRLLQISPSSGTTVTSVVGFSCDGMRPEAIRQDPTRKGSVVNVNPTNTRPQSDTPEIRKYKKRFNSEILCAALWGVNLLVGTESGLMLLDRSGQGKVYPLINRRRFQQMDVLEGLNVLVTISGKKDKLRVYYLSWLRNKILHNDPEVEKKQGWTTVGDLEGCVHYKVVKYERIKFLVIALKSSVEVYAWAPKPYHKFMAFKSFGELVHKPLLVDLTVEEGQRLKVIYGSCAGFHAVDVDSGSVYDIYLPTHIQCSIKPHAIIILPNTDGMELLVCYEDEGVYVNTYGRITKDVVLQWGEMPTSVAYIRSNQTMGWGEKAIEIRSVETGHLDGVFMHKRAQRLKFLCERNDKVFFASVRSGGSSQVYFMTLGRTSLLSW
Experiment [7] concerns the target BDNF/NT-3 growth factors receptor (Homo sapiens) (UniProt Q16620). Kind of experiment: Inhibition of TRKB (unknown origin).

Calls of active or inactive are those of the source. The calls are words filed in the database; no cut-off is given here. A value given as a limit tells only on which side of the number the result lay.

Inhibition and IC50 data for 10 compounds are collected here from ChEMBL document CHEMBL3400143, “Discovery and hit-to-lead optimization of 2,6-diaminopyrimidine inhibitors of interleukin-1 receptor-associated kinase 4” (Bioorg Med Chem Lett, 2015).

Broadly, the IC50 is the concentration that gives 50% inhibition.

Sequence of Receptor-type tyrosine-protein kinase FLT3 (Homo sapiens) (P36888 whole entry): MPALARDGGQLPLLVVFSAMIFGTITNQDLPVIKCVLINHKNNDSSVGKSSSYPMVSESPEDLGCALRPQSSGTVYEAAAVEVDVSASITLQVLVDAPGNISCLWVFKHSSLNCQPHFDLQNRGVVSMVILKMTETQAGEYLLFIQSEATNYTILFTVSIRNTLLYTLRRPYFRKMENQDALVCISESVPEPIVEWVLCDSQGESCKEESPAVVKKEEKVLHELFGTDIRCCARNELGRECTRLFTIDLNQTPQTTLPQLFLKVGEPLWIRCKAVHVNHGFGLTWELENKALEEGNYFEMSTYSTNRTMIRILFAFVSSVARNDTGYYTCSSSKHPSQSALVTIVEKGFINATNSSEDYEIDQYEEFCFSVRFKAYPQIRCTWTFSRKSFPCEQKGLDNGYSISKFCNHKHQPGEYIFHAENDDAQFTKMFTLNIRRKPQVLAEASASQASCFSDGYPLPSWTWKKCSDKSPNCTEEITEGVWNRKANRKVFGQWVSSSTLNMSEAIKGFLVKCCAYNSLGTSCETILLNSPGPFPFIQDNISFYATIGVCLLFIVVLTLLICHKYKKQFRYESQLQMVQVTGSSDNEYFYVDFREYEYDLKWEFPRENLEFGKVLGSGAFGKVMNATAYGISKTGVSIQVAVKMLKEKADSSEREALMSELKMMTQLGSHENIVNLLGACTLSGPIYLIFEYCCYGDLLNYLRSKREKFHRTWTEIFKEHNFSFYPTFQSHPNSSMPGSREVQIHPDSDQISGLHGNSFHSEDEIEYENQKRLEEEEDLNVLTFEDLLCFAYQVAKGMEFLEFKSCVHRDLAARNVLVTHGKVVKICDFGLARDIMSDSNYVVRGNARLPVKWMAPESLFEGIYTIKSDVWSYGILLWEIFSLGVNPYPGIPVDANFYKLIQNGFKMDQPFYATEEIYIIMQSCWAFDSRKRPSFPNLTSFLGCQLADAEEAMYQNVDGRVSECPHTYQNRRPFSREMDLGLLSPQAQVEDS
Sequence of High affinity nerve growth factor receptor (Homo sapiens) (P04629 33-796 limits assumed): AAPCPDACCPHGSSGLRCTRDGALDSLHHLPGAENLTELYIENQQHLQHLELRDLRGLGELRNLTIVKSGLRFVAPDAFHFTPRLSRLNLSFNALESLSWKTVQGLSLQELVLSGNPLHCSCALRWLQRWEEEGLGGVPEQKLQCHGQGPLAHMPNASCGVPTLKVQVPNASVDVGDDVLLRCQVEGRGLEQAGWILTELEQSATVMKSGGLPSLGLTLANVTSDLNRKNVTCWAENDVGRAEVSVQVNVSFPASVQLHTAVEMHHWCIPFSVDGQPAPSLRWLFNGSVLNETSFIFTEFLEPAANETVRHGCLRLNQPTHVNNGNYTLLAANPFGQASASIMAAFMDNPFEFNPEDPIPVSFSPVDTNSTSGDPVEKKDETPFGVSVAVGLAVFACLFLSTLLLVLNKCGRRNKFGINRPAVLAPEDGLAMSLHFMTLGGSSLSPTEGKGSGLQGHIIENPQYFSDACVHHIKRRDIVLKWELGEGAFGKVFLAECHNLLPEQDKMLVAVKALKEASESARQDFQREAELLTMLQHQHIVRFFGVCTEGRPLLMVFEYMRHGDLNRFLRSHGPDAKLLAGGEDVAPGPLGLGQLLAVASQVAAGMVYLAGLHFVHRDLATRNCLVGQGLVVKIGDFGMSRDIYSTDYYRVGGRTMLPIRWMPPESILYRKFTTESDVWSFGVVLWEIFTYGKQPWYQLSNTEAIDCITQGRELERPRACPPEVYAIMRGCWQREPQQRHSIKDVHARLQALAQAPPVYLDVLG
Sequence of BDNF/NT-3 growth factors receptor (Homo sapiens) (Q16620 32-822 limits assumed): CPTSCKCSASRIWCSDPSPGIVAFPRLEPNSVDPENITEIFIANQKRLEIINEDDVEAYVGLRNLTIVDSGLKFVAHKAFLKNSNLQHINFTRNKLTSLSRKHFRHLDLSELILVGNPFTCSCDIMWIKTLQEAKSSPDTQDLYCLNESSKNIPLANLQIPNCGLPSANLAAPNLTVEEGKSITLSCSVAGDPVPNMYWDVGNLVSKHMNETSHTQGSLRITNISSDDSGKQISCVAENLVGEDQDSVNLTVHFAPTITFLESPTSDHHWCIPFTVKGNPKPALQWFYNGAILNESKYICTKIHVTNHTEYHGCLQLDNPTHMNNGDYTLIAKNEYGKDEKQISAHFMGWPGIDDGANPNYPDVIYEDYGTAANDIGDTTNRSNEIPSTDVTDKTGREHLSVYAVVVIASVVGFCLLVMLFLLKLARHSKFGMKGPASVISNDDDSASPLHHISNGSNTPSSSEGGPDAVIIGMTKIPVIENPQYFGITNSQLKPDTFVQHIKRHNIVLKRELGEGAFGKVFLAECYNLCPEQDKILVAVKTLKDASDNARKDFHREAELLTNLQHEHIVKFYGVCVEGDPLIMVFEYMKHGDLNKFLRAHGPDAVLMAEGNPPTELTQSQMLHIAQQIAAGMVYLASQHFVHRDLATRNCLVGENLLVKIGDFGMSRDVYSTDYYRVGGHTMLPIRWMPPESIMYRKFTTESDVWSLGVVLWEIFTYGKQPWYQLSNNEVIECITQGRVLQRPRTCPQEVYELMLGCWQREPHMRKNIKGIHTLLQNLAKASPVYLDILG

In the case of `Cc1cc(Nc2ncc(-c3nc4ccccc4s3)c(N[C@@H]3C[C@H](CO)[C@@H](O)[C@H]3O)n2)ccn1`, the inhibition result in experiment [1], in experiment [2], in experiment [4], in experiment [5], in experiment [6] and in experiment [7] was “Active” throughout. Besides, the half-inhibitory concentration (IC50) in experiment [3] came to 1 µM.
As for `Nc1ncc(-c2nc3ccccc3s2)c(N[C@@H]2C[C@H](CO)[C@@H](O)[C@H]2O)n1`, the inhibition entry in experiment [1], in experiment [2], in experiment [4], in experiment [5], in experiment [6] and in experiment [7] was “Active” each time. In experiment [3], the IC50 stood at 0.24 µM.
As for `Nc1ncc(-c2nc3ccccc3o2)c(N[C@@H]2C[C@H](CO)[C@@H](O)[C@H]2O)n1`, the inhibition entry in experiment [1], in experiment [2], in experiment [4], in experiment [5], in experiment [6] and in experiment [7] was “Active” throughout.
In the case of `Nc1ncc(-c2nc3ccncc3s2)c(N[C@@H]2C[C@H](CO)[C@@H](O)[C@H]2O)n1`, the inhibition entry in experiment [1], in experiment [2], in experiment [4], in experiment [5], in experiment [6] and in experiment [7] was “Active” throughout.
For `Cc1cc(Nc2ncc(-c3nc4ccccc4s3)c(N[C@@H]3C[C@H](CO)[C@@H](O)[C@H]3O)n2)cc(C)n1`, the inhibition result in experiment [1], in experiment [2], in experiment [4], in experiment [5], in experiment [6] and in experiment [7] was “Active” throughout. For the same compound, the IC50 in experiment [3] was found to be 1 µM.
Take `Cn1c(-c2cnc(N)nc2N[C@@H]2C[C@H](CO)[C@@H](O)[C@H]2O)nc2ccccc21`: the inhibition entry in experiment [1], in experiment [2], in experiment [4], in experiment [5], in experiment [6] and in experiment [7] was “Active” each time. Further, the IC50 in experiment [3] was above 20 µM.
In the case of `Nc1nc(N[C@@H]2C[C@H](CO)[C@@H](O)[C@H]2O)c(-c2nc3ccccc3s2)c(C2CC2)n1`, the inhibition entry in experiment [1], in experiment [2], in experiment [4], in experiment [5], in experiment [6] and in experiment [7] was “Active” in each case. Besides, the IC50 in experiment [3] was above 20 µM.
As to `Nc1ncc(-c2nc3cnccc3s2)c(N[C@@H]2C[C@H](CO)[C@@H](O)[C@H]2O)n1`, the inhibition entry in experiment [1], in experiment [2], in experiment [4], in experiment [5], in experiment [6] and in experiment [7] was “Active” in each case.
For `Nc1ncc(-c2ccc3ccccc3n2)c(N[C@@H]2C[C@H](CO)[C@@H](O)[C@H]2O)n1`, the inhibition result in experiment [1], in experiment [2], in experiment [4], in experiment [5], in experiment [6] and in experiment [7] was “Active” in each case.
Consider `Nc1ncc(-c2nc(-c3ccccc3)cs2)c(N[C@@H]2C[C@H](CO)[C@@H](O)[C@H]2O)n1`, for which the inhibition result in experiment [1], in experiment [2], in experiment [4], in experiment [5], in experiment [6] and in experiment [7] was “Active” each time.
